16 compounds from patent US10472336B2, “Modulators of indoleamine 2,3-dioxygenase” (GlaxoSmithKline Intellectual Property (No.2) Limited, priority 2015, dated 2019) can be followed below.

Where a name gives a salt, the structure may show the parent alone.

The target in assay [1] is T1, indoleamine 2, 3-dioxygenase (IDO1) (Homo sapiens, UniProt P14902). The assay can be described thus: HeLa IDOi assay (kynurenine detection by mass spectrometry). Format: cell-based. Set-up: human epithelial HeLa cells (CCL-2; host or cells: HeLa cells stimulated with human IFN-γ. The conditions noted are these: IFN-γ stimulated human epithelial HeLa cells, 2 days. The procedure, abridged: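 HeLa cells (5,000/well) stimulated with 10 nM IFN-γ to induce IDO1 were exposed to 11-point compound dilutions for 2 days at 37 °C. Supernatant kynurenine was measured by RapidFire MS as a ratio to internal standard; cytotoxicity was read with CellTiter-Glo. Four-parameter fits gave pIC50 and pCC50.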

Assay [2] concerns the target T1, indoleamine 2, 3-dioxygenase (IDO1). Put plainly: PBMC IDOi assay (kynurenine detection by mass spectrometry). Format: cell-based. The conditions noted are these: IFN-γ and LPS stimulated human PBMC, 2 days. On the procedure:
Compounds of the present invention were tested via high-throughput cellular assays utilizing detection of kynurenine via mass spectrometry and cytotoxicity as end-points. For the mass spectrometry and cytotoxicity assays, human peripheral blood mononuclear cells (PBMC) (PB003F; AllCells®, Alameda, Calif.) were stimulated with human interferon-γ (IFN-γ) (Sigma-Aldrich Corporation, St. Louis, Mo.) and lipopolysaccharide from Salmonella minnesota (LPS) (Invivogen, San Diego, Calif.) to induce the expression of indoleamine 2, 3-dioxygenase (IDO1). Compounds with IDO1 inhibitory properties decreased the amount of kynurenine produced by the cells via the tryptophan catabolic pathway. Cellular toxicity due to the effect of compound treatment was measured using CellTiter-Glo® reagent (CTG) (Promega Corporation, Madison, Wis.), which is based on luminescent detection of ATP, an indicator of metabolically active cells.
In preparation for the assays, test compounds were serially diluted 3-fold in DMSO from a typical top concentration of 5 mM and plated at 0.5 μL in 384-well, polystyrene, clear bottom, tissue culture treated plates with lids (Greiner Bio-One, Kremsmünster, Austria) to generate 11-point dose response curves. Low control wells (0% kynurenine or 100% cytotoxicity) contained either 0.5 μL of DMSO in the presence of unstimulated (−IFN-γ/−LPS) PBMCs for the mass spectrometry assay or 0.5 μL of DMSO in the absence of cells for the cytotoxicity assay, and high control wells (100% kynurenine or 0% cytotoxicity) contained 0.5 μL of DMSO in the presence of stimulated (+IFN-γ/+LPS) PBMCs for both the mass spectrometry and cytotoxicity assays.
Frozen stocks of PBMCs were washed and recovered in RPMI 1640 medium (Thermo Fisher Scientific, Inc., Waltham, Mass.) supplemented with 10% v/v heat-inactivated fetal bovine serum (FBS) (Thermo Fisher Scientific, Inc., Waltham, Mass.), and 1× penicillin-streptomycin antibiotic solution (Thermo Fisher Scientific, Inc., Waltham, Mass.). The cells were diluted to 1,000,000 cells/mL in the supplemented RPMI 1640 medium. 50 μL of either the cell suspension, for the mass spectrometry assay, or medium alone, for the cytotoxicity assay, were added to the low control wells, on the previously prepared 384-well compound plates, resulting in 50,000 cells/well or 0 cells/well respectively. IFN-γ and LPS were added to the remaining cell suspension at final concentrations of 100 ng/ml and 50 ng/ml respectively, and 50 μL of the stimulated cells were added to all remaining wells on the 384-well compound plates. The plates, with lids, were then placed in a 37° C., 5% CO2 humidified incubator for 2 days.
Following incubation, the 384-well plates were removed from the incubator and allowed to equilibrate to room temperature for 30 minutes. For the cytotoxicity assay, CellTiter-Glo® was prepared according to the manufacturer's instructions, and 40 μL were added to each plate well. After a twenty minute incubation at room temperature, luminescence was read on an EnVision® Multilabel Reader (PerkinElmer Inc., Waltham, Mass.). For the mass spectrometry assay, 10 μL of supernatant from each well of the compound-treated plates were added to 40 μL of acetonitrile, containing 10 μM of an internal standard for normalization, in 384-well, polypropylene, V-bottom plates (Greiner Bio-One, Kremsmünster, Austria) to extract the organic analytes. Following centrifugation at 2000 rpm for 10 minutes, 10 μL from each well of the acetonitrile extraction plates were added to 90 μL of sterile, distilled H2O in 384-well, polypropylene, V-bottom plates for analysis of kynurenine and the internal standard on the RapidFire 300 (Agilent Technologies, Santa Clara, Calif.) and 4000 QTRAP MS (SCIEX, Framingham, Mass.). MS data were integrated using Agilent Technologies' RapidFire Integrator software, and data were normalized for analysis as a ratio of kynurenine to the internal standard. […]

T1 sequence (P14902 whole entry): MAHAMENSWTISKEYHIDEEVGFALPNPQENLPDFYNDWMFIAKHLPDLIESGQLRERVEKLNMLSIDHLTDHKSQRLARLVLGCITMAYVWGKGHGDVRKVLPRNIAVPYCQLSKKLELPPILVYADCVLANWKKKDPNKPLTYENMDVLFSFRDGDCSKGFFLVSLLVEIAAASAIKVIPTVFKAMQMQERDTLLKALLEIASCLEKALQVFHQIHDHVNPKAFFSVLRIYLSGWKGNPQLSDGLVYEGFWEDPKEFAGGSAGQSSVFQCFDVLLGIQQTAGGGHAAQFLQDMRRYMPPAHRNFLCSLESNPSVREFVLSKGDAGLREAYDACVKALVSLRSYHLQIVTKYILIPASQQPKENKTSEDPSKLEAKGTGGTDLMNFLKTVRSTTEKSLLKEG

With `CC(C)CN(c1ccc(C(C)CC(=O)O)cc1Nc1nnc(C(F)(F)F)s1)C1CCCCC1` (centres unmarked) [Example 29, 3-(4-(cyclohexyl(isobutyl)amino)-3-((5-(trifluoromethyl)-1,3,4-thiadiazol-2-yl)amino)phenyl)butanoic acid], the EC50 in assay [1] was 3.16 nM; in assay [2], 0.316 nM.

Take `CC(C)CN(c1ccc([C@H](C)CC(=O)O)cc1Nc1nnc(C2CC2)[nH]1)C1CCCCC1` [Example 50, (R)-3-(4-(cyclohexyl(isobutyl)amino)-3-((5-cyclopropyl-4H-1,2,4-triazol-3-yl)amino)phenyl)butanoic acid]: the EC50 in assay [1] is 10 nM; in assay [2], 2.51 nM.

Consider `CC(C)CN(CC(C)C)c1ccc(C(C)CC(=O)O)cc1Nc1nnc(C(F)(F)F)s1` (centres unmarked) [Example 55, 3-(4-(diisobutylamino)-3-((5-(trifluoromethyl)-1,3,4-thiadiazol-2-yl)amino)phenyl)butanoic acid, 2,2,2-trifluoroacetic acid salt], for which the EC50 in assay [1] is 3.16 nM; in assay [2], 0.631 nM.

Consider `CC(C)CN(CC(C)C)c1ccc(C(C)CC(=O)O)cc1Nc1cnc(C2CC2)s1` (centres unmarked) [Example 61, 3-(3-((2-cyclopropylthiazol-5-yl)amino)-4-(diisobutylamino)phenyl)butanoic acid], for which the results for the EC50 in assay [1] and in assay [2] were 63.1 nM and 31.6 nM, respectively.

Take `CC(C)CN(c1ccc(C(C)CC(=O)O)cc1NC1=N[C@@H](C(F)(F)F)CO1)C1CCCCC1` (stereo partly drawn) [Example 76, 3-(4-(Cyclohexyl(isobutyl)amino)-3-(((R)-4-(trifluoromethyl)-4,5-dihydrooxazol-2-yl)amino)phenyl)butanoic acid]: the EC50 is 31.6 nM in assay [1] and 20 nM in assay [2].

Consider `CC(C)CN(c1ccc([C@@H](C)CC(=O)O)cc1Nc1nnc(C2CC2)s1)C1CCCCC1` [Example 57, (S)-3-(4-(cyclohexyl(isobutyl)amino)-3-((5-cyclopropyl-1,3,4-thiadiazol-2-yl)amino)phenyl)butanoic acid], for which the EC50 in assay [1] was 2 nM; in assay [2] it was 0.631 nM.

As for `Cc1nnc(Nc2cc(C(C)CC(=O)O)ccc2N(CC(C)C)CC(C)C)[nH]1` (centres unmarked) [Example 47, 3-(4-(diisobutylamino)-3-((5-methyl-4H-1,2,4-triazol-3-yl)amino)phenyl)butanoic acid], the values for the EC50 in assay [1] and in assay [2] were 158 nM and 200 nM, respectively.

On to `CC(C)CN(c1ccc([C@H](C)CC(=O)O)cc1Nc1nnc(C2CC2)s1)C1CCCCC1` [Example 56, (R)-3-(4-(cyclohexyl(isobutyl)amino)-3-((5-cyclopropyl-1,3,4-thiadiazol-2-yl)amino)phenyl)butanoic acid], for which the EC50 is 3.16 nM in assay [1] and 0.251 nM in assay [2].

In the case of `CC(C)CN(c1ccc(C(C)CC(=O)O)cc1NCc1cncs1)C1CCCCC1` (centres unmarked) [Example 22, 3-(4-(cyclohexyl(isobutyl)amino)-3-((thiazol-5-ylmethyl)amino)phenyl)butanoic acid], the EC50 in assay [1] was 200 nM; in assay [2] it was 100 nM.

For `CC(C)CN(CC(C)C)c1ccc(C(C)CC(=O)O)cc1Nc1nc(Cl)ns1` (centres unmarked) [Example 25, 3-(3-((3-chloro-1,2,4-thiadiazol-5-yl)amino)-4-(diisobutylamino)phenyl)butanoic acid], the EC50 in assay [1] is 31.6 nM; in assay [2], 25.1 nM.

Consider `CC(C)CN(c1ccc(C(C)CC(=O)O)cc1NCc1ccco1)C1CCCCC1` (centres unmarked) [Example 59, 3-(4-(cyclohexyl(isobutyl)amino)-3-((furan-2-ylmethyl)amino)phenyl)butanoic acid], for which the EC50 in assay [1] is 501 nM; in assay [2], 200 nM.

With `CC(C)CN(CC(C)C)c1ccc(C(C)CC(=O)O)cc1Nc1nc2ccccc2o1` (centres unmarked) [Example 1, 3-(3-(benzo[d]oxazol-2-ylamino)-4-(diisobutylamino)phenyl)butanoic acid], the EC50 in assay [1] was 398 nM; in assay [2], 631 nM.

As to `CC(C)CN(CC(C)C)c1ccc([C@H](C)CC(=O)O)cc1Nc1nc(C(F)(F)F)ns1` [Example 54, (R)-3-(4-(diisobutylamino)-3-((3-(trifluoromethyl)-1,2,4-thiadiazol-5-yl)amino)phenyl)butanoic acid], the EC50 in assay [1] was 6.31 nM; in assay [2], 2 nM.

On to `Cc1ccccc1CNc1cc(C(C)CC(=O)O)ccc1N(CC(C)C)C1CCCCC1` (centres unmarked) [Example 23, 3-(4-(cyclohexyl(isobutyl)amino)-3-((2-methylbenzyl)amino)phenyl)butanoic acid], for which the EC50 in assay [1] is 316 nM; in assay [2] it was 200 nM.

As for `CC(C)CN(c1ccc([C@@H](C)CC(=O)O)cc1Nc1nc(C(F)(F)F)ns1)C1CCCCC1` [Example 37, (S)-3-(4-(cyclohexyl(isobutyl)amino)-3-((3-(trifluoromethyl)-1,2,4-thiadiazol-5-yl)amino)phenyl)butanoic acid], the EC50 in assay [1] is 2 nM; in assay [2] it was 1 nM.

`CC(C)CN(c1ccc([C@@H](C)CC(=O)O)cc1Nc1ccnc(Cl)n1)C1CCCCC1` [Example 62, (S)-3-(3-((2-chloropyrimidin-4-yl)amino)-4-(cyclohexyl(isobutyl)amino)phenyl)butanoic acid]: the EC50 was 3.98 nM in assay [1] and 2.51 nM in assay [2].
